# Assays:
# [1] = Moisture adsorption/desorption isotherm measurement (DVS); type: physicochemical; conditions: for difference in water content between 0% RH and 95% RH: 25° C.
# Source text: The moisture adsorption/desorption isotherm measurement is a measurement method for measuring the adsorption and desorption behavior of moisture by measuring a weight change in a solid as a measurement target under each relative humidity condition.
# As a basic measurement method, based on the dry weight at 0% RH (relative humidity 0%), the relative humidity is increased every 5% or 10%, and after the weight is stabilized at each relative humidity, the amount of adsorbed water can be determined from the weight increase from the reference value. Similarly, the desorption amount of water can be measured by decreasing the relative humidity every 5% or 10% from 100% RH or 95% RH.
# By plotting the value of the weight change at each relative humidity, an adsorption/desorption isotherm can be obtained.
# Sorption and desorption of adhesion water and crystal water are affected by particle size, crystallinity, crystal habit, and the like, so that the measurement results may slightly change.
# The crystals and amorphous substances obtained in each Example were weighed in an aluminum pan, and allowed to stand at 25° C. and a relative humidity of 0%. The measurement was started after the compound was sufficiently dried and the weight was stabilized, and the weight when the relative humidity changed from 0% to 95% by 5% was recorded. Next, the weight when the relative humidity changed from 95% to 0% by 5% was recorded.
# Device: DVS Advantage manufactured by Surface Measurement Systems
# [2] = Solid stability test: storage stability (amount of analogous substance by HPLC, appearance); type: physicochemical; conditions: temperature, temperature and humidity conditions, light irradiation; analogous substance by HPLC and appearance
# Experimental: For the solid stability of the crystal of the compound represented by Formula (I) obtained in Example 1 and the crystal of the compound represented by Formula (II) obtained in Example 16, the chemical stability under temperature, temperature and humidity conditions, and light irradiation was evaluated. The proportion (%) of the analogous substance produced by an HPLC method and the change in appearance were evaluated.
# About 10 mg of the crystal was accurately weighed in a 2 mL glass container with a polyethylene stopper. After the glass container was closed, the glass container was stored at 40° C. or 60° C. for 2 weeks, 1 month, 2 months, 3 months, or 6 months. A sample stored at 40° C. is referred to as a 40° C. hermetically sealed product, and a sample stored at 60° C. is referred to as a 60° C. hermetically sealed product. In a state where the glass container was opened, the glass container was stored at a relative humidity of 75±5% at 40° C. or a relative humidity of 89±5% for 2 weeks, 1 month, 2 months, 3 months or 6 months, or in the presence of silica gel at 40° C. for 1 month, 2 months, 3 months or 6 months. A sample stored at 40° C. and a relative humidity of 75±5% or 89±5% is referred to as a 40° C. and 75% relative humidity (also referred to as 40±2° C./75±5% RH) or 40° C. and 89% relative humidity (also referred to as 40±2° C./89% RH) stored product, and a sample stored in the presence of silica gel at 40° C. is referred to as a 40° C. stored product. The −40° C. hermetically sealed product was used as a standard product.
# The amount of the analogous substance was measured by an area percentage method by the HPLC method under the following conditions.
# HPLC Conditions 1 were used for the crystal and amorphous substance of the compound represented by Formula (I) obtained in Example 1, and HPLC conditions 2 were used for the crystal of the compound represented by Formula (II) obtained in Example 16.
# • Detector: ultraviolet absorptiometer (measurement wavelength: 260 nm) • Column: YMC-Triart C18 ExRS, S-1.9 μm, 3.0×100 mm • Column temperature: constant temperature at near 40° C. • Mobile phase A: 0.1% formic acid aqueous solution • Mobile phase B: acetonitrile • Flow rate: about 0.6 mL/min • Injection amount: 3 μL • Sample cooler temperature: about 6° C. • Feed of mobile phase: The mixing ratio of mobile phase A and mobile phase B was changed as shown in Table 18 to control concentration gradient.
# Column: Cortecs (2.7 μm 3.0×100 mm)
# Column temperature: 40° C.
# UV detection wavelength: 254 nm
smiles,measurement,setting,value
Cc1ccc(-n2nc3c(c2NC(=O)CS(C)(=O)=O)C(=O)NC2(CCOc4cc(F)cc(F)c42)C3)nc1 (stereo not drawn),Moisture adsorption amount (%),[1]; relative humidity 0.0%,0.002%
same,Moisture desorption amount (%),[1]; relative humidity 0.0%,−0.433%
same,Moisture adsorption amount (%),[1]; relative humidity 5.0%,0.676%
same,Moisture desorption amount (%),[1]; relative humidity 5.0%,0.606%
same,Moisture adsorption amount (%),[1]; relative humidity 10.0%,1.020%
same,Moisture desorption amount (%),[1]; relative humidity 10.0%,1.196%
same,Moisture adsorption amount (%),[1]; relative humidity 15.0%,1.312%
same,Moisture desorption amount (%),[1]; relative humidity 15.0%,1.674%
same,Moisture adsorption amount (%),[1]; relative humidity 20.0%,1.574%
same,Moisture desorption amount (%),[1]; relative humidity 20.0%,2.131%
same,Moisture adsorption amount (%),[1]; relative humidity 25.0%,1.807%
same,Moisture desorption amount (%),[1]; relative humidity 25.0%,2.495%
same,Moisture adsorption amount (%),[1]; relative humidity 30.0%,2.015%
same,Moisture desorption amount (%),[1]; relative humidity 30.0%,2.831%
same,Moisture adsorption amount (%),[1]; relative humidity 35.0%,2.213%
same,Moisture desorption amount (%),[1]; relative humidity 35.0%,3.157%
same,Moisture adsorption amount (%),[1]; relative humidity 40.0%,2.414%
same,Moisture desorption amount (%),[1]; relative humidity 40.0%,3.423%
same,Moisture adsorption amount (%),[1]; relative humidity 45.0%,2.589%
same,Moisture desorption amount (%),[1]; relative humidity 45.0%,3.699%
same,Moisture adsorption amount (%),[1]; relative humidity 50.0%,2.780%
same,Moisture desorption amount (%),[1]; relative humidity 50.0%,3.913%
same,Moisture adsorption amount (%),[1]; relative humidity 55.0%,2.976%
same,Moisture desorption amount (%),[1]; relative humidity 55.0%,4.135%
same,Moisture adsorption amount (%),[1]; relative humidity 60.0%,3.185%
same,Moisture desorption amount (%),[1]; relative humidity 60.0%,4.411%
same,Moisture adsorption amount (%),[1]; relative humidity 65.0%,3.384%
same,Moisture desorption amount (%),[1]; relative humidity 65.0%,4.683%
same,Moisture adsorption amount (%),[1]; relative humidity 70.0%,3.623%
same,Moisture desorption amount (%),[1]; relative humidity 70.0%,5.151%
same,Moisture adsorption amount (%),[1]; relative humidity 75.0%,3.914%
same,Moisture desorption amount (%),[1]; relative humidity 75.0%,5.420%
same,Moisture adsorption amount (%),[1]; relative humidity 80.0%,4.320%
same,Moisture desorption amount (%),[1]; relative humidity 80.0%,5.865%
same,Moisture adsorption amount (%),[1]; relative humidity 85.0%,4.850%
same,Moisture desorption amount (%),[1]; relative humidity 85.0%,6.219%
same,Moisture adsorption amount (%),[1]; relative humidity 90.0%,5.604%
same,Moisture desorption amount (%),[1]; relative humidity 90.0%,6.599%
same,Moisture adsorption amount (%),[1]; relative humidity 95.0%,6.974%
same,Moisture desorption amount (%),[1]; relative humidity 95.0%,6.974%
CS(=O)(=O)CC(=O)Nc1c2c(nn1CCCOC(F)(F)F)C[C@@]1(CCOc3cc(OCC(F)(F)F)ccc31)NC2=O [amorphous substance of the compound represented by Formula (],difference in water content between 0% RH and 95% RH,[1]; DVS,about 2.6%
CS(=O)(=O)CC(=O)Nc1c2c(nn1CCCOC(F)(F)F)C[C@@]1(CCOc3cc(OCC(F)(F)F)ccc31)NC2=O [crystal of the compound represented by Formula (II) obtained],hygroscopicity (in words),"[1]; DVS, 0% to 95% RH",no problem in hygroscopicity
same,difference in water content between 0% RH and 95% RH,[1]; DVS,about 0.4%
same,Moisture adsorption amount (%),[1]; relative humidity 0.0%,0.0000%
same,Moisture desorption amount (%),[1]; relative humidity 0.0%,0.0690%
same,Moisture adsorption amount (%),[1]; relative humidity 5.0%,0.0149%
same,Moisture desorption amount (%),[1]; relative humidity 5.0%,0.1029%
same,Moisture adsorption amount (%),[1]; relative humidity 10.0%,0.0250%
same,Moisture desorption amount (%),[1]; relative humidity 10.0%,0.1252%
same,Moisture adsorption amount (%),[1]; relative humidity 15.0%,0.0352%
same,Moisture desorption amount (%),[1]; relative humidity 15.0%,0.1435%
same,Moisture adsorption amount (%),[1]; relative humidity 20.0%,0.0494%
same,Moisture desorption amount (%),[1]; relative humidity 20.0%,0.1610%
same,Moisture adsorption amount (%),[1]; relative humidity 25.0%,0.0623%
same,Moisture desorption amount (%),[1]; relative humidity 25.0%,0.1773%
same,Moisture adsorption amount (%),[1]; relative humidity 30.0%,0.0758%
same,Moisture desorption amount (%),[1]; relative humidity 30.0%,0.1922%
same,Moisture adsorption amount (%),[1]; relative humidity 35.0%,0.0893%
same,Moisture desorption amount (%),[1]; relative humidity 35.0%,0.2077%
same,Moisture adsorption amount (%),[1]; relative humidity 40.0%,0.1042%
same,Moisture desorption amount (%),[1]; relative humidity 40.0%,0.2206%
same,Moisture adsorption amount (%),[1]; relative humidity 45.0%,0.1204%
same,Moisture desorption amount (%),[1]; relative humidity 45.0%,0.2348%
same,Moisture adsorption amount (%),[1]; relative humidity 50.0%,0.1387%
same,Moisture desorption amount (%),[1]; relative humidity 50.0%,0.2497%
same,Moisture adsorption amount (%),[1]; relative humidity 55.0%,0.1563%
same,Moisture desorption amount (%),[1]; relative humidity 55.0%,0.2659%
same,Moisture adsorption amount (%),[1]; relative humidity 60.0%,0.1746%
same,Moisture desorption amount (%),[1]; relative humidity 60.0%,0.2822%
same,Moisture adsorption amount (%),[1]; relative humidity 65.0%,0.2016%
same,Moisture desorption amount (%),[1]; relative humidity 65.0%,0.3038%
same,Moisture adsorption amount (%),[1]; relative humidity 70.0%,0.2334%
same,Moisture desorption amount (%),[1]; relative humidity 70.0%,0.3289%
same,Moisture adsorption amount (%),[1]; relative humidity 75.0%,0.2619%
same,Moisture desorption amount (%),[1]; relative humidity 75.0%,0.3464%
same,Moisture adsorption amount (%),[1]; relative humidity 80.0%,0.2937%
same,Moisture desorption amount (%),[1]; relative humidity 80.0%,0.3627%
same,Moisture adsorption amount (%),[1]; relative humidity 85.0%,0.3268%
same,Moisture desorption amount (%),[1]; relative humidity 85.0%,0.3782%
same,Moisture adsorption amount (%),[1]; relative humidity 90.0%,0.3695%
same,Moisture desorption amount (%),[1]; relative humidity 90.0%,0.4013%
same,Moisture adsorption amount (%),[1]; relative humidity 95.0%,0.4243%
same,Moisture desorption amount (%),[1]; relative humidity 95.0%,0.4243%
same,solid stability (in words),[2],excellent in solid stability under any conditions
